Test results: US20050074867A1, “Preservation of competent cells at ambient temperatures” (priority 2001, published 2005)
Several values for one entry are separate records, joined by “and”; a condition that tells them apart may be missing. Identical values can stand only once.

Columns and labels:
[1] = system: Escherichia coli ATCC strain MM294 cells; assay: Preservation survival of electrocompetent E. coli MM294 cells dried by foam formation (plate count); type: cell-based; conditions: cells loaded with 10% MAG, preserved (dried) by foam formation; average of three independent experiments
Experimental: (1) Preparation of fresh electrocompetent cells: Escherichia coli ATCC strain MM294 cells were grown under standard conditions in L-broth (growth medium for E. coli), at 37° C., with moderate aeration (shaking at 250 rpm). An isolated colony from a fresh streak was inoculated into 5 ml of L-broth and incubated overnight (preculture). The following morning, the preculture was subcultured (1% inoculum) in 100 ml of L-broth+glucose (0.05%-0.5%). The cells were incubated until OD550=0.5 (subculture). At this point, the cells were transferred into 250 ml of L-broth+glucose (0.05%-0.5%) and incubation continued until OD550=0.8. Two flasks with 250 ml of cells were prepared.
When the culture OD550 reached 0.8 (cell density approx. 5×10^8 cfu/ml), the cells were harvested by centrifugation at 2,500 rpm (at room temperature) for 10 minutes. […] Bacterial counts were determined by diluting cells in PBS buffer and spread plating appropriate dilutions in duplicate on L-agar. The plates were incubated at 37° C. overnight and colonies were counted the following day. […]
(5) Assaying the preserved E. coli cells: Dried samples were rehydrated at room temperature. […] Plates were incubated at 37° C. overnight and colonies were counted the following day. […]

[2] = system: commercial electrocompetent E. coli cells; assay: Preservation yield and stability of commercial electrocompetent E. coli cells; type: cell-based
Experimental: (4) Preservation of electrocompetent E. coli cells: The cells (resuspended in PBS buffer or on 20% sucrose) were mixed with an equal mass of preservation solution consisting of 45% 2:1 sucrose:raffinose or 45% 4:1 sucrose:MAG on ice. Altematively, the cell pellets were resuspended directly in 22.5% sucrose:raffinose or 22.5% 4:1 sucrose:MAG. The 0.5 g aliquots were distributed in 5 ml glass serum vials or 0.2 g aliquots were distributed in 1.2 ml glass serum vials. To determine the survival in preservation solution before drying, cell-containing mixtures were diluted in PBS buffer containing 20% sucrose and appropriate dilutions were spread plated in duplicate on L-agar plates.
The samples were dried by foam formation. The mixtures were foamed at 0° C. and kept at that temperature until foam formation occurred. After foam was well formed, shelf temperature was increased to 20° C. and drying continued overnight (at least 12 hours).
When applicable, electrocompetent cells were frozen in the following manner. The cell suspension (100 μl) was mixed with 10% DMSO (10 μl) and slowly frozen at −80° C.
(5) Assaying the preserved E. coli cells: Dried samples were rehydrated at room temperature. 1 ml of rehydration solution (20% sucrose) was added to the 5 ml vials and 0.2 ml was added to the 1.2 ml vials. For the determination of preservation survival, rehydrated cells were diluted and spread plated in duplicate on L-agar plates. Plates were incubated at 37° C. overnight and colonies were counted the following day.
In this example, commercial electrocompetent E. coli cells, in the form of a bacterial pellet, were preserved by the foam formation process. The cells were concentrated 100-fold and preserved as described previously. To increase desiccation tolerance and enhance preservation survival. One aliquot of the cells were loaded in vitro with 10% MAG. The preserved cells were stored at 4° C. In addition to preservation by foam formation, the cells were preserved by slow freezing (with 10% DMSO) at −80° C.

[3] = Frozen cells 72 hours at −80° C., foam formation-preserved cells (loaded with 10% MAG) dried overnight
[4] = foam-preserved cells stored at 4° C., frozen cells at −80° C.

COC1OC(CO)C(O)C(O)C1O (stereo not drawn) [MAG, a-methyl-glucoside]
Preservation Yield Cfu/ml [1]: 1.1 × 10^10 Cfu/ml
Preservation yield % [1]: 53.5%
Preservation Yield Cfu/ml [2, 3]: 8.8 × 10^9 +/− 3.9 × 10^8 Cfu/ml
Preservation yield % [2, 3]: 63.6% and 63.6 +/− 2.8%
Stability (12 days) % [2, 4]: 68.5% and 68.5 +/− 0.8%
Stability (12 days) Cfu/ml [2, 4]: 9.5 × 10^9 +/− 1.1 × 10^8 Cfu/ml
